The record followed here is patent US20260198495A1, “BINARY INSECTICIDE COMPOSITION AND USE THEREOF” (SHENYANG SINOCHEM AGROCHEMICALS R & D CO., LTD., priority 2022, published 2026).

Structures are written as SMILES. Values after ≈ are worked out from the molar mass of the structure shown.

What all share (assay type): in vivo
Series [1] deals with 3rd-instar larvae of Agrotis ipsilon (Rottemberg). Put plainly: whole plant or invertebrate. As to conditions: Agrotis ipsilon; A = compound I-72, B = metalaxyl-M; insect-dipping; 72 hours; read-out: LC50. The method, then:
Test conditions: temperature: 24-26° C., humidity: RH 60%, and illumination: L:D=14:10
(§1) Preparation of the pesticide solution: according to different test requirements, the test samples were accurately weighed respectively with an electronic analytical balance. The technical pesticides were dissolved in acetone, and then diluted with 0.1% Tween 80 water into a series of pesticide solutions with a certain concentration gradient according to the experimental design dosage.
The target insects were dipped into the pesticide solution for 10 s and then taken out. Excess pesticide solution was absorbed with filter paper. […] A treatment without the pesticide was set as the blank control.
The number of dead and live insects was investigated 72 hours later. The corrected mortality rate was calculated using the Abbott's formula, and statistical analysis was performed with the DPS data processing software to obtain the toxicity regression equation and LC50 value of each single test pesticide and each mixture of different ratios.

In series [2] the test system is adult Bemisia tabaci (Gennadius). The series is described as follows: whole plant or invertebrate. The following applies: in Phaseolus vulgaris, 72 h. As to the method:
as §1
In addition, a blank control was set up. The number of dead and live insects was investigated 72 hours later.

In series [3] the test system is 2nd-instar larvae of Spodoptera exigua Hübner. Put plainly: Joint toxicity of I-72 + lufenuron, Example 54, Table 54. The following applies: foliar, A = compound I-72, B = lufenuron, cabbage leaf dipping, 72 hours, read-out: LC50. The method, then:
Test target: 2nd-instar larvae of Spodoptera exigua Hübner.
as §1
Experimental method: first, cabbage leaves were selected and dipped in the prepared pesticide solution for 10 s in the order from low dosage to high dosage according to the experimental design. After natural air-drying in the shade, they were placed in a 9-cm-diameter Petri dish with filter paper, and uniform and healthy test insects were introduced, with 10 insects for each treatment and 3 replicates for each treatment. In addition, a blank control was set up.
The treated test materials were placed in an observation room, and the temperature, humidity and illumination of the observation room could be adjusted as needed. The number of dead and live insects was investigated 72 hours later. […] Then, the co-toxicity coefficient of each ratio was calculated using the Sun Y-P method to evaluate the mixing effect (the same as in Example 1).

Series [4] has as its system Empoasca pirisuga. Put plainly: Field efficacy trial of I-72 and Beauveria bassiana in a tea garden, Example 88, Table 88. The following applies: spraying. The method, then:
This trial was performed in a tea garden in Yuhang District, Hangzhou. The spraying method was used for pesticide application. The investigation method was to take samples at 5 points, with 2 fixed plants at each point. A total of 10 plants were investigated in each plot, and the trial was replicated four times. The number of Empoasca vitis nymphs on the back of 100 tender leaves in each plot was randomly investigated. The amount of the pesticide solution sprayed was 75 L per mu. The base number was investigated before the pesticide application, and the number of live Empoasca pirisuga in each treatment sample point was investigated 3, 7 and 14 days after the pesticide application. The calculation method for the efficacy of the test pesticides was the same as that in Example 38.
Test pesticides: A: wettable powder of Beauveria bassiana with 40 billion spores/gram (Jiangxi Tianren Ecology Co., Ltd.); and B: compound I-72 (dissolved in acetone, 0.1% Tween 80 was added, and a 10% stock solution was prepared for use).

Series [5] relates to Bemisia tabaci (Gennadius) nymphs. Put plainly: Joint toxicity of I-72 + thiacloprid, Example 71, Table 71. As to conditions: A = compound I-72, B = thiacloprid, cotton leaf-disk spraying, 96 hours, read-out: LC50. As to the method:
Test target: Bemisia tabaci (Gennadius) nymphs, a sensitive strain reared indoors.
as §1
Experimental method: first, cotton leaves with neat and consistent Bemisia tabaci (Gennadius) nymphs were selected and made into leaf disks, with about 20 insects on each leaf disk. Then, they were evenly sprayed with the pesticide solution in the order from low dosage to high dosage according to the experimental design, with 1.5 mL for each leaf and 3 replicates for each treatment. In addition, a blank control was set up.
The treated test materials were placed in an observation room, and the temperature, humidity and illumination of the observation room could be adjusted as needed. The number of dead and live insects was investigated 96 hours later. […] Then, the co-toxicity coefficient of each ratio was calculated using the Sun Y-P method to evaluate the mixing effect (the same as in Example 1).

Series [6] relates to 2nd-instar larvae of Chilo suppressalis (Walker). Put plainly: Joint toxicity of I-72 + azadirachtin, Example 36, Table 36. As to conditions: A = compound I-72, B = azadirachtin, rice stalk spraying, 72 hours, chlorantraniliprole-resistant strain, read-out: LC50. The text has this:
Test target: 2nd-instar larvae of Chilo suppressalis (Walker). The insect source was collected from Nanchang, Jiangxi Province, and it is the 11th generation continuously cultured indoors, with a relatively high resistance level to amide pesticides such as chlorantraniliprole.
Experimental method: the spraying method was adopted. Rice stalks with the same length and thickness were selected, cut into the same length, and evenly sprayed with the pesticide solution in the order from low dosage to high dosage according to the experimental design, with 1.5 mL of the pesticide solution for each treatment. The stalks were placed in a 6-cm-diameter Petri dish with filter paper. After natural air-drying in the shade, uniform and healthy test insects were introduced, with 10 insects for each treatment and 4 replicates for each treatment. In addition, a blank control was set up. The number of dead and live insects was investigated 72 hours later. The corrected mortality rate was calculated using the Abbott's formula, and the DPS data processing software was used for statistical analysis to calculate the toxicities (LC50 values) of the single test pesticides and the mixtures under the test ratios.
The test conditions, the preparation of the pesticide solution and the evaluation method were the same as those in Example 1.

Series [7] concerns 3rd-instar larvae of Yponomeuta evonymallus (Linnaeus). Put plainly: Joint toxicity of I-72 + thiamethoxam, Example 66, Table 66. As to conditions: A = compound I-72, B = thiamethoxam; leaf dipping; 72 hours. As to the method:
Test target: 3rd-instar larvae of Yponomeuta evonymallus (Linnaeus).
as §1
Experimental method: first, Hylotelephium spectabile leaves were selected and dipped in the prepared pesticide solution for 10 s in the order from low dosage to high dosage according to the experimental design. After natural air-drying in the shade, they were placed in a 9-cm-diameter Petri dish with filter paper, and uniform and healthy test insects were introduced, with 10 insects for each treatment and 3 replicates for each treatment. In addition, a blank control was set up.
The treated test materials were placed in an observation room, and the temperature, humidity and illumination of the observation room could be adjusted as needed. The number of dead and live insects was investigated 72 hours later.

Usually LC50 stands for the concentration lethal to half of the exposed cells or organisms. Regarding `CN(C(=O)c1ccc2c(c1)OC(F)(F)O2)c1cccc(C(=O)Nc2c(Br)cc(C(F)(C(F)(F)F)C(F)(F)F)cc2OC(F)F)c1F` [Compound I-72], the LC50 in series [1] came to 0.265 µg/mL (≈ 0.357 µM); in series [2], 2.91 µg/mL (≈ 3.92 µM); in series [3], 0.273 µg/mL; in series [5], 10.9 µg/mL; in series [6], 0.822 µg/mL; in series [7], 4.5752 µg/mL. Moreover, the “Control efficacy 3 days after pesticide application” value in series [4] (dose 15 ml) was 57.0%; in series [4] (dose 30 ml) it was 57.5%; in series [4] (dose 45 ml) it was 62.5%. For the same compound, the “Control efficacy 7 days after pesticide application” value in series [4] (dose 15 ml) is 75.8%; in series [4] (dose 30 ml) it was 77.7%; in series [4] (dose 45 ml), 78.1%. For the same compound, the “Control efficacy 14 days after pesticide application” value is 74.2% in series [4] (dose 15 ml), 79.3% in series [4] (dose 30 ml) and 78.9% in series [4] (dose 45 ml).
